The values below come from patent publication US20260138978A1, “POSITIVE ALLOSTERIC MODULATORS OF THE MUSCARINIC ACETYLCHOLINE RECEPTOR M1” (Vanderbilt University, priority 2022, published 2026).

As a reminder, the Emax is the size of the effect at its maximum, as opposed to the concentration needed. One may read the pEC50 as the negative decadic logarithm of the EC50, by convention in mol/L.

Molecules are shown by their SMILES. pEC50: −log10 of the molar value.

In assay [1] the target is T1, human mAChRM1 (Homo sapiens, UniProt P11229).
T1 construct: host or cells: CHO-K1
T1 sequence (P11229 1-460): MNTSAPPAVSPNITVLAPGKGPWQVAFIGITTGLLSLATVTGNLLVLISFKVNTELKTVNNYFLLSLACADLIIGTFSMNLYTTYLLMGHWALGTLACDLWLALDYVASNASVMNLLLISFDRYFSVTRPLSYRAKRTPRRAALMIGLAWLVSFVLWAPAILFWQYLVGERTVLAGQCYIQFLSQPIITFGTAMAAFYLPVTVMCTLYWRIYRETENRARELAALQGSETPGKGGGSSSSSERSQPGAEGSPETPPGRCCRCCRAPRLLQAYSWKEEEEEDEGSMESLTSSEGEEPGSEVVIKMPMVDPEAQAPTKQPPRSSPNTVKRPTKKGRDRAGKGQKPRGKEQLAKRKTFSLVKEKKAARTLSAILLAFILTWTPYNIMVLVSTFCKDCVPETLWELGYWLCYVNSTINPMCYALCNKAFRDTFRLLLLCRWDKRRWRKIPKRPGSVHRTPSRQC
The assay can be described thus: mAChR M1 cell-based functional assay (calcium mobilization), positive allosteric modulator activity: increase in the EC20 acetylcholine response. Conditions: for Emax: PAM mode; for pEC50: increase in the EC20 acetylcholine response, read-out: PAM Activity Human M1 EC50; call rule not given here. The gist of the method: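 Potentiation is scored as the rise in an EC20 acetylcholine-evoked calcium signal across 11-point (1:3) compound series, fitted with a four-parameter logistic equation to give EC50 and Emax. Read-out is Fluo-4 fluorescence ratio in hM1-transfected CHO-K1 cells, measured kinetically on FDSS.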
On the technique in general: A change in cytosolic calcium serves as a functional read-out for many receptors and channels.

Assay [2] has as its target T1, human mAChRM1. The assay can be described thus: mAChR M1 cell-based functional assay (calcium mobilization), agonist activity upon compound addition, Emax relative to acetylcholine maximum. The settings on record: calcium mobilization upon compound addition. A digest of the protocol: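 Emax is given as a percentage of the maximal acetylcholine response, from four-parameter curves of compound-evoked calcium mobilization. Human M1-transfected CHO-K1 cells carried Fluo-4 dye, and compound (11 concentrations, 1:3 steps) was applied at 4 s of a 300 s kinetic fluorescence recording.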

`CCC(O)(CC)c1ccc(-c2ccc(CN3Cc4ncccc4C3=O)c(F)c2)c2cn(C)nc12` [Compound 70, 6-(2-fluoro-4-(7-(3-hydroxypentan-3-yl)-2-methyl-2H-indazol-4-yl)benzyl)-6,7-dihydro-5H-pyrrolo[3,4-b]pyridin-5-one]: on human mAChRM1 [1], the Emax amounted to 78% and the pEC50 was 5.66. For the same molecule, the “Agonist Activity Human M1 EC50” value at human mAChRM1 [2] is “inactive”.
The like results for `Cn1cc2cc(-c3ccc(CN4Cc5cccc(F)c5C4=O)c(F)c3)cc(C(C)(C)O)c2n1` [Compound 166, 7-fluoro-2-(2-fluoro-4-(7-(2-hydroxypropan-2-yl)-2-methyl-2H-indazol-5-yl)benzyl)isoindolin-1-one] were, in that order, 76%, 6.13 and “inactive”.
The corresponding values for `CN(C)c1cc(-c2ccc(C(C)(C)O)c3nn(C)cc23)cc(F)c1CN1Cc2cccnc2C1=O` [Compound 125, 6-(2-(dimethylamino)-6-fluoro-4-(7-(2-hydroxypropan-2-yl)-2-methyl-2H-indazol-4-yl)benzyl)-5,6-dihydro-7H-pyrrolo[3,4-b]pyridin-7-one] are 77%, ≤ 5.00 and “inactive”.
The like results for `Cc1cc(-c2ccc(C(O)(C3CC3)C3CC3)c3nn(C)cc23)cc(F)c1CN1Cc2ncccc2C1=O` [Compound 85, 6-(4-(7-(dicyclopropyl(hydroxy)methyl)-2-methyl-2H-indazol-4-yl)-2-fluoro-6-methylbenzyl)-6,7-dihydro-5H-pyrrolo[3,4-b]pyridin-5-one] were, in that order, 81%, 5.77 and “inactive”.
`CC(C)(O)c1ccc(-c2cc(F)c(CN3Cc4ncccc4C3=O)c(F)c2)c2c1OCO2` [Compound 87, 6-(2,6-difluoro-4-(7-(2-hydroxypropan-2-yl)benzo[d][1,3]dioxol-4-yl)benzyl)-6,7-dihydro-5H-pyrrolo[3,4-b]pyridin-5-one]: at human mAChRM1 [1], the maximum response (Emax) was 73% and the pEC50 was 6.00. On human mAChRM1 [2], the “Agonist Activity Human M1 EC50” value is “inactive”.
The corresponding values for `Cn1cc2c(C(C)(C)O)cc(-c3cc(F)c(CN4Cc5ncccc5C4=O)c(F)c3)cc2n1` [Compound 19, 6-(2,6-difluoro-4-(4-(2-hydroxypropan-2-yl)-2-methyl-2H-indazol-6-yl)benzyl)-6,7-dihydro-5H-pyrrolo[3,4-b]pyridin-5-one] are 50%, ≤ 5.00 and “inactive”.
Consider `Cn1cc2c(-c3cnc(CN4Cc5ncccc5C4=O)nc3)ccc(C(C)(C)O)c2n1` [Compound 110, 6-[[5-[7-(1-Hydroxy-1-methyl-ethyl)-2-methyl-indazol-4-yl]pyrimidin-2-yl]methyl]-7H-pyrrolo[3,4-b]pyridin-5-one], for which, at human mAChRM1 [1], the Emax was 43% and the pEC50 is ≤ 5.00. The “Agonist Activity Human M1 EC50” value at human mAChRM1 [2] was “inactive”.
With `Cn1cc2cc(-c3ccc(CN4Cc5ncccc5C4=O)cc3)cc(C(C)(C)O)c2n1` [Compound 36, 6-(4-(7-(2-hydroxypropan-2-yl)-2-methyl-2H-indazol-5-yl)benzyl)-6,7-dihydro-5H-pyrrolo[3,4-b]pyridin-5-one], at human mAChRM1 [1], the maximum response (Emax) was 67% and the pEC50 is 6.02. Also, the “Agonist Activity Human M1 EC50” value at human mAChRM1 [2] was “inactive”.
Consider `[2H]C1([2H])c2ncccc2C(=O)N1Cc1ccc(-c2ccc(C(C)(C)O)c3nn(C)cc23)c(F)c1F` [Compound 149, 6-(2,3-Difluoro-4-(7-(2-hydroxypropan-2-yl)-2-methyl-2H-indazol-4-yl)benzyl)-6,7-dihydro-5H-pyrrolo[3,4-b]pyridin-5-one-7,7-d2], for which, at human mAChRM1 [1], the Emax is 88% and the negative logarithm of the EC50 (pEC50) is 6.21. On human mAChRM1 [2], the “Agonist Activity Human M1 EC50” value was “inactive”.
